Laboratory results published in PubChem BioAssay AID256 (DTP/NCI, 2004).
Toxic doses and inconclusive results are not listed. The calls were made as follows: active = survival T/C of 150% or more; inactive = T/C below 125% in these data.

Test system: CD2F1 mice, L1210 leukemia ip, survival T/C
Experiment: NCI In Vivo Anticancer Drug Screen. Data for tumor model L1210 Leukemia (intraperitoneal) in CD2F1 (CDF1) mice
Conditions: endpoint: mean survival time, higher = longer survival
Outline: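 Activity against a transplanted murine tumor was judged by comparing the compound group with a vehicle group. The outcome in the treated animals was divided by that in the controls.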

[1] = dose: 12.5 mg/kg/injection, schedule: Q01DX009 (ip), vehicle: other
[2] = dose: 25.0 mg/kg/injection, schedule: Q01DX009 (ip), vehicle: other
[3] = dose: 50.0 mg/kg/injection, schedule: Q01DX009 (ip), vehicle: other
[4] = dose: 100.0 mg/kg/injection, schedule: Q01DX009 (ip), vehicle: other
[5] = dose: 200.0 mg/kg/injection, schedule: Q01DX009 (ip), vehicle: other
[6] = dose: 100.0 mg/kg/injection, schedule: Q04DX003 (ip), vehicle: saline with Tween-80
[7] = dose: 200.0 mg/kg/injection, schedule: Q04DX003 (ip), vehicle: saline with Tween-80
[8] = dose: 400.0 mg/kg/injection, schedule: Q04DX003 (ip), vehicle: saline with Tween-80
[9] = dose: 12.5 mg/kg/injection, schedule: Q04DX003 (ip), vehicle: saline
[10] = dose: 100.0 mg/kg/injection, schedule: Q04DX003 (ip), vehicle: saline
[11] = dose: 200.0 mg/kg/injection, schedule: Q04DX003 (ip), vehicle: saline

Measured: T/C

CCOC(=O)C1C(=O)N(c2ccccc2)C(=O)N1Cc1ccccc1 (stereo not drawn)
inactive: [1] 98 % of control | [2] 98 % of control | [3] 97 % of control | [4] 95 % of control | [5] 86 % of control

CCCc1nc(N)[nH]c(=O)c1CCCCCCCCCCCc1ccccc1
inactive: dose: 75.0 mg/kg/injection, schedule: Q01DX001 (ip), vehicle: saline with Tween-80 98 % of control | dose: 150.0 mg/kg/injection, schedule: Q01DX001 (ip), vehicle: saline with Tween-80 97 % of control | dose: 300.0 mg/kg/injection, schedule: Q01DX001 (ip), vehicle: saline with Tween-80 95 % of control

CC(=O)OCC1(OC2OC(CNC(=O)N(C)N=O)C(OC(C)=O)C(OC(C)=O)C2OC(C)=O)OC(CNC(=O)N(C)N=O)C(OC(C)=O)C1OC(C)=O (stereo not drawn)
inactive: [1] 102 % of control | [2] 102 % of control | [3] 109 % of control | [4] 105 % of control | [5] 119 % of control

O=C(Nc1cccc(O)c1)OCCCCl
inactive: [6] 98 % of control | [7] 98 % of control | [8] 96 % of control

c1ccc(NC(Nc2ccccn2)c2ccncc2)nc1
inactive: dose: 54.25 mg/kg/injection, schedule: Q04DX003 (ip), vehicle: saline with Tween-80 97 % of control | [6] 102 % of control | dose: 108.5 mg/kg/injection, schedule: Q04DX003 (ip), vehicle: saline with Tween-80 103 % of control | [7] 108 % of control | dose: 217.0 mg/kg/injection, schedule: Q04DX003 (ip), vehicle: saline with Tween-80 102 % of control | [8] 110 % of control | dose: 434.0 mg/kg/injection, schedule: Q04DX003 (ip), vehicle: saline with Tween-80 100 % of control | dose: 600.0 mg/kg/injection, schedule: Q04DX003 (ip), vehicle: saline with Tween-80 113 % of control

c1ccc(C[N+]23CCC(CC2)CC3)cc1
inactive: dose: 6.25 mg/kg/injection, schedule: Q04DX003 (ip), vehicle: saline 104 % of control | [9] 103 % of control

c1cncc(CCc2cccnc2)c1
inactive: [10] 100 % of control | [11] 100 % of control

CC(=O)Oc1ccc2c(c1)C(=O)CCCCCC(=O)O2
inactive: dose: 12.5 mg/kg/injection, schedule: Q01DX009 (ip), vehicle: saline 100 % of control | [9] 97 % of control | dose: 25.0 mg/kg/injection, schedule: Q01DX001 (ip), vehicle: saline 98 % of control | dose: 25.0 mg/kg/injection, schedule: Q01DX009 (ip), vehicle: saline 97 % of control | dose: 25.0 mg/kg/injection, schedule: Q04DX003 (ip), vehicle: saline 98 % of control | dose: 50.0 mg/kg/injection, schedule: Q01DX001 (ip), vehicle: saline 110 % of control | dose: 50.0 mg/kg/injection, schedule: Q01DX009 (ip), vehicle: saline 94 % of control | dose: 50.0 mg/kg/injection, schedule: Q04DX003 (ip), vehicle: saline 111 % of control | dose: 100.0 mg/kg/injection, schedule: Q01DX001 (ip), vehicle: saline 98 % of control | dose: 100.0 mg/kg/injection, schedule: Q01DX009 (ip), vehicle: saline 95 % of control | [10] 120 % of control | dose: 200.0 mg/kg/injection, schedule: Q01DX001 (ip), vehicle: saline 100 % of control | dose: 200.0 mg/kg/injection, schedule: Q01DX009 (ip), vehicle: saline 89 % of control | [11] 102 % of control | dose: 400.0 mg/kg/injection, schedule: Q01DX001 (ip), vehicle: saline 111 % of control
